The target in series [1] is T1, PI3Kα E545K (Homo sapiens, UniProt P42336, E545K). Briefly: PI3Kα E545K mutant in vitro cell based assay, MCF-7 cells. The conditions noted are these: MCF-7 cell line, 0% FBS, 3 hours treatment. The source says: PI3K-Alpha Kinase (PI3Kα) Activity: Wild-Type PI3Kα, H1047R Mutant PI3Kα, and E545K Mutant PI3Kα In Vitro Cell Based Assays and Determination of IC50 Values for Inhibitors
The MDA-MB-453 (ATCC-HTB-131) cell line (PI3Kα H1047R) and MCF-7 (ATCC-HTB-22) cell line (PI3Kα E545K), MDA-MB-361 (ATCC-HTB-27) cell line (PI3Kα E545K), and SKBR3 (ATCC-HTB-30) cell line (wild type PI3Kα) were obtained from the American Type Culture Collection (Manassas, VA). MDA-MB-453 cells were maintained in Dulbecco's Modified Eagle Media (DMEM, Gibco 12430) supplemented with 10% Fetal Bovine Serum, heat inactivated (FBS HI, Gibco 10082), 1× non-essential amino acids (NEAA, Gibco 11140), 1 mM sodium pyruvate (Gibco 11360) and 1× Anti-Anti (Gibco 15240). MCF-7 cells were maintained in Minimum Essential Media (MEM) (Gibco 11095) supplemented with 10% Fetal Bovine Serum, heat inactivated (FBS HI, Gibco 10082), 1× non-essential amino acids (NEAA, Gibco 11140), 1 mM sodium pyruvate (Gibco 11360), 1× Anti-Anti (Gibco 15240) and 10 μg/mL human insulin (Sigma I 9278). MDA-MB-361 cells were maintained in Dulbecco's Modified Eagle Media (DMEM, Gibco 12430) supplemented with 20% Fetal Bovine Serum, heat inactivated (FBS HI, Gibco 10082), 1× non-essential amino acids (NEAA, Gibco 11140), 1 mM sodium pyruvate (Gibco 11360) and 1× Anti-Anti (Gibco 15240). SKBR3 cells were maintained in McCoy's 5A (Gibco 16600) supplemented with 10% Fetal Bovine Serum, heat inactivated (FBS HI, Gibco 10082), and 1× Anti-Anti (Gibco 15240). Cultures were maintained in a humidified incubator at 37° C. under 5% CO2/95% air.
For compound testing in 0% FBS, MDA-MB-453, MCF-7 and SKBR3 cells were seeded at a density of 1.5×10^4, 1.0×10^4, and 1.0×10^4 cells, respectively, per well in white 384-well plates in 20 μl of Minimum Essential Media (MEM) assay media with 1×NEAA, 1 mM sodium pyruvate, and 1 μg/mL human insulin (Sigma 19278) (Assay Medium); while MDA-MB-361 cells were seeded at a density of 1.5×10^4 per well in white 384-well plates in 20 μl Assay Medium without insulin. After plating, cells were allowed to attach overnight. Compounds dissolved in 10 mM stock solutions in DMSO were serially diluted 1:3 in DMSO to generate a 10-point dilution series and plated using an acoustic liquid handler system (Echo 550 Series Liquid Handler, Labcyte). A 5× intermediate compound dilution plate in MEM with 1×NEAA and 1 mM sodium pyruvate (150 μM starting compound concentration in 1.5% DMSO) was then prepared. Five μl of the intermediate serially diluted compounds were added to the cell plate to final concentrations ranging from […] in 0.3% DMSO. 0.3% DMSO alone was used to establish the maximum (MAX) signal and GDC-0032 at a final concentration of 1 μM was used as a reference compound for the minimum (MIN) signal. After 3 hours treatment, the medium was removed, and the cells were lysed in 10 μL of 1× SureFire Lysis buffer with shaking for 10 minutes at room temperature. The Acceptor Mix (Reaction Buffer 1+Reaction Buffer 2+Activation Buffer+SureFire Ultra Acceptor Beads) was prepared by diluting Activation buffer 25-fold in combined Reaction Buffer 1 and Reaction Buffer 2.
The Acceptor beads were diluted 50-fold in the combined Reaction Buffers. Five μL of Acceptor Mix was added to each well, the plate was sealed and covered with foil and incubated for 1 hour at room temperature. The Donor Mix (dilution buffer+SureFire Ultra Donor Beads) was prepared by diluting Donor Beads 50-fold in dilution buffer. Five μL of the Donor Mix was added to each well and the plate sealed and covered with foil and incubated for 1-2 hours at room temperature in the dark. The plates were read on a Neo2 plate reader instrument from Biotek using standard AlphaLisa settings.
Compounds were tested in duplicate and the % inhibition at each compound concentration was used to generate two dose response curves. One IC50 was generated using average % inhibition at each compound concentration. […]

Series [2] in a line: Metabolic stability and intrinsic clearance in human liver microsomes (MICS). The series is classed as in vitro ADME. The following applies: human, microsomes, pH 7.4. The method, boiled down:
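Parent depletion by LC-MS/MS, run in duplicate, gave in vitro t1/2 from the slope of ln(% remaining) versus time, converted to CLint (μL/min/mg protein). Incubations: 1 μM compound, microsomes at 0.5 mg/mL, pH 7.4 phosphate, 37° C, ±1 mM NADPH, timepoints 0.5, 5, 15, 30, 60 min.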
On the technique in general: Microsomes from liver hold many membrane-bound enzymes, among them those of drug oxidation.

For series [3], the target named is T1, PI3Kα E545K. Briefly: PI3Kα E545K mutant in vitro cell based assay, MDA-MB-361 cells. Also on record: MDA-MB-361 (ATCC-HTB-27) cell line (PI3Kα E545K); host or cells: MDA-MB-361. The conditions noted are these: MDA-MB-361 cell line, 0% FBS, no insulin, 3 hours treatment. An outline of the steps:
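Compound exposure lasted 3 hours, in duplicate 10-point 1:3 dilutions at 0.3% DMSO final, on overnight-attached MDA-MB-361 cells carrying PI3Kα E545K in insulin-free, 0% FBS MEM. Lysates read by SureFire AlphaLISA. Relative IC50 from 4-parameter logistic fit versus DMSO and 1 μM GDC-0032 controls.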

T1 sequence (P42336 whole entry E545K): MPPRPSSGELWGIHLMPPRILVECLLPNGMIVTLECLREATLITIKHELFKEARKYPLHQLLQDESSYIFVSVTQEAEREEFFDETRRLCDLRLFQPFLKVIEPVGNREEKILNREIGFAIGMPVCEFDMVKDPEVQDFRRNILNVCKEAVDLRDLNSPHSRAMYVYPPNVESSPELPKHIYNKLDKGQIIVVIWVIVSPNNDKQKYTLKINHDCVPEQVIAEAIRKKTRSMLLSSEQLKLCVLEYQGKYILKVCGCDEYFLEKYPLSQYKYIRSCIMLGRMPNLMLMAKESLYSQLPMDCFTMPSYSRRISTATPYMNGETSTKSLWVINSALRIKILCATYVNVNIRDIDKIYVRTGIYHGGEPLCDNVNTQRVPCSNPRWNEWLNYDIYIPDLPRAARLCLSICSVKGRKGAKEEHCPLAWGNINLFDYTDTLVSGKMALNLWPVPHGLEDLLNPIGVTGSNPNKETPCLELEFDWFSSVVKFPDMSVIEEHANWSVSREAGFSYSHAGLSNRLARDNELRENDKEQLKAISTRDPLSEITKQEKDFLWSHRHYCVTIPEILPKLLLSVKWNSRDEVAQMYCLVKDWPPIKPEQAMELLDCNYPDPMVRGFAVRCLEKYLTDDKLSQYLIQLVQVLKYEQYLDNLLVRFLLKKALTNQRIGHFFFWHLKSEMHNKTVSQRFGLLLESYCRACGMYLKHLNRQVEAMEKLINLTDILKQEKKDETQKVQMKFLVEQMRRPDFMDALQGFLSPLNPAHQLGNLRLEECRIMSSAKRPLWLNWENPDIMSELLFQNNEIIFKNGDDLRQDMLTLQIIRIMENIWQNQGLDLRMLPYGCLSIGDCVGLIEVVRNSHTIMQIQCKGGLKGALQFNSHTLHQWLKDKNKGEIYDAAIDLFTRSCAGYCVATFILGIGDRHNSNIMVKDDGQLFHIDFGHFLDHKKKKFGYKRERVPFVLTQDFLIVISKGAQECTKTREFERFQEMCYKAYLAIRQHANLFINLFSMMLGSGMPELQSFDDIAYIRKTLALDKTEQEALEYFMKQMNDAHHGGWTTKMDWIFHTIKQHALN
T1 sequence (P27986 whole entry partner): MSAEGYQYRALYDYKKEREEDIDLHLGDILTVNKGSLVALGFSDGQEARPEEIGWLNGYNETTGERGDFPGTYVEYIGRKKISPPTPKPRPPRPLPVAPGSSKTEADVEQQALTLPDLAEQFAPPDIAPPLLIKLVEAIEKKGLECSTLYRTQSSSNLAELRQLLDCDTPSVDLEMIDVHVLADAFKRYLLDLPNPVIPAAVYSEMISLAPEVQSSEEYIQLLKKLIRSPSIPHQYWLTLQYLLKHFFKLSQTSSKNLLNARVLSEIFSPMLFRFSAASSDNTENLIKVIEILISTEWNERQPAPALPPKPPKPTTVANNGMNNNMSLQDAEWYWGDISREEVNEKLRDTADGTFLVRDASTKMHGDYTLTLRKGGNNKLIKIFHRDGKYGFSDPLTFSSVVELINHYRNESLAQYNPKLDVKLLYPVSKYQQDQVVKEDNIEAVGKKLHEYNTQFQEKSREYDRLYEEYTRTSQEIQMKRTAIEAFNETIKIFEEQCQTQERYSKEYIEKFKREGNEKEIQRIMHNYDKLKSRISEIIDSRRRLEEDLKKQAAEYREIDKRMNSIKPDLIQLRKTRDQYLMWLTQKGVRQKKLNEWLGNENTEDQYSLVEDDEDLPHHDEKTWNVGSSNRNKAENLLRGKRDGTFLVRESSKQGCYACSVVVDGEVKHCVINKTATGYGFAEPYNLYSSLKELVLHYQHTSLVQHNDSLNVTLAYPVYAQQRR

One may read the IC50 as the concentration that gives 50% inhibition. What is called microsomal CLint is a measure of how fast metabolising enzymes remove a compound, apart from limits set by blood flow. High values mean rapid turnover, low ones slow turnover. The compound `Cc1cc([C@@H](C)Oc2ccc(Cl)nc2S(N)(=O)=O)c2oc(-c3ccc4nc(C)cn4n3)c(C)c(=O)c2c1` [Example 19C, 6-Chloro-3-[(1R)-1-[3,6-dimethyl-2-(2-methylimidazo[1,2-b]pyridazin-6-yl)-4-oxo-chromen-8-yl]ethoxy]pyridine-2-sulfonamide] yielded an IC50 in series [1] of less than 500 nM. Also, in series [2], the intrinsic metabolic clearance (microsomal CLint) at 1 μM was less than 50 µL/min/mg.
Regarding `Cc1cc([C@@H](C)Oc2ccc(Cl)nc2C(N)=O)c2oc(-c3cncc(F)c3)c(C)c(=O)c2c1` [Example 20A, 6-Chloro-3-[(1R)-1-[2-(5-fluoro-3-pyridyl)-3,6-dimethyl-4-oxo-chromen-8-yl]ethoxy]pyridine-2-carboxamide], the IC50 in series [1] was less than 500 nM. The microsomal CLint at 1 μM in series [2] was less than 50 µL/min/mg.
For `CONC(=O)c1ncccc1O[C@H](C)c1cc(C)cc2c(=O)c(C)c(-c3ccc4nn(C)cc4c3)oc12` [Example 23A, 3-[(1R)-1-[3,6-Dimethyl-2-(2-methylindazol-5-yl)-4-oxo-chromen-8-yl]ethoxy]-N-methoxy-pyridine-2-carboxamide], in series [1], the IC50 was less than 500 nM. In series [2], this compound registered a microsomal CLint at 1 μM of less than 50 µL/min/mg.
Take `Cc1cc([C@@H](C)Oc2cccnc2C(=O)NOCC2CC2)c2oc(-c3ccc4nn(C)cc4c3)c(C)c(=O)c2c1` [Example 25A, N-(Cyclopropylmethoxy)-3-[(1R)-1-[3,6-dimethyl-2-(2-methylindazol-5-yl)-4-oxo-chromen-8-yl]ethoxy]pyridine-2-carboxamide]: the IC50 in series [1] and in series [3] was less than 500 nM throughout.
`Cc1cc([C@@H](C)Oc2ccc(Cl)nc2C(N)=O)c2oc(-c3ccc4nn(C)cc4c3F)c(C)c(=O)c2c1` [Example 46C, 6-Chloro-3-[(1R)-1-[2-(4-fluoro-2-methyl-indazol-5-yl)-3,6-dimethyl-4-oxo-chromen-8-yl]ethoxy]pyridine-2-carboxamide] yielded an IC50 in series [1] of less than 500 nM. Also, the microsomal CLint at 1 μM in series [2] was less than 50 µL/min/mg.
With `Cc1cc([C@@H](C)Oc2ccc(Cl)cc2S(N)(=O)=O)c2oc(-c3ccccc3)c(C)c(=O)c2c1` [Example 98C, 5-Chloro-2-[(1R)-1-(3,6-dimethyl-4-oxo-2-phenyl-chromen-8-yl)ethoxy]benzenesulfonamide], the IC50 in series [1] and in series [3] was less than 500 nM each time.
With `Cc1cc([C@@H](C)Oc2ccc(F)cc2S(N)(=O)=O)c2oc(C3CC3)c(C)c(=O)c2c1` [Example 107C, 2-[(1R)-1-(2-Cyclopropyl-3,6-dimethyl-4-oxo-chromen-8-yl)ethoxy]-5-fluoro-benzenesulfonamide], the IC50 in series [1] and in series [3] was less than 500 nM each time.
`Cc1cc([C@@H](C)Oc2ccc(F)nc2S(N)(=O)=O)c2oc(C3CC3)c(C)c(=O)c2c1` [Example 109C, 3-[(1R)-1-(2-Cyclopropyl-3,6-dimethyl-4-oxo-chromen-8-yl)ethoxy]-6-fluoro-pyridine-2-sulfonamide]: the IC50 in series [1] is less than 500 nM. The compound also returned a microsomal CLint at 1 μM in series [2] of less than 50 µL/min/mg.
For `COCCn1cc(-c2oc3c([C@@H](C)Oc4ccc(Cl)nc4S(N)(=O)=O)cc(C)cc3c(=O)c2C)cn1` [Example 117C, 6-Chloro-3-[(1R)-1-[2-[1-(2-methoxyethyl)pyrazol-4-yl]-3,6-dimethyl-4-oxo-chromen-8-yl]ethoxy]pyridine-2-sulfonamide], the IC50 in series [1] and in series [3] was less than 500 nM throughout.
Take `Cc1cc([C@@H](C)Oc2ccc(Cl)nc2C(N)=O)c2oc(-c3ccc4c(c3)OCC(=O)N4C)c(C)c(=O)c2c1` [Example 119A, 6-Chloro-3-[(1R)-1-[3,6-dimethyl-2-(4-methyl-3-oxo-1,4-benzoxazin-7-yl)-4-oxo-chromen-8-yl]ethoxy]pyridine-2-carboxamide]: the IC50 in series [1] and in series [3] was less than 500 nM each time.
Compound `Cc1cc([C@@H](C)Oc2ccc(Cl)nc2C(N)=O)c2oc(-c3cc4cn(C)nc4cn3)c(C)c(=O)c2c1` [Example 128A, 6-Chloro-3-[(1R)-1-[3,6-dimethyl-2-(2-methylpyrazolo[3,4-c]pyridin-5-yl)-4-oxo-chromen-8-yl]ethoxy]pyridine-2-carboxamide] showed an IC50 in series [1] of less than 500 nM. In addition, in series [2], the microsomal CLint at 1 μM is less than 50 µL/min/mg.
As to `Cc1cc([C@@H](C)Oc2ccc(Cl)nc2C(N)=O)c2oc(-c3ccc4nn(CCO)cc4c3)c(C)c(=O)c2c1` [Example 129C, 6-Chloro-3-[(1R)-1-[2-[2-(2-hydroxyethyl)indazol-5-yl]-3,6-dimethyl-4-oxo-chromen-8-yl]ethoxy]pyridine-2-carboxamide], the IC50 in series [1] and in series [3] was less than 500 nM throughout.
On to `Cc1cc([C@@H](C)Oc2ccc(Cl)nc2C(N)=O)c2oc(-c3ccc4nn(CC5(O)CC5)cc4c3)c(C)c(=O)c2c1` [Example 130C, 6-Chloro-3-[(1R)-1-[2-[2-[(1-hydroxycyclopropyl)methyl]indazol-5-yl]-3,6-dimethyl-4-oxo-chromen-8-yl]ethoxy]pyridine-2-carboxamide], for which the concentration for half-maximal inhibition (IC50) in series [1] and in series [3] was less than 500 nM in each case.
On to `Cc1cc([C@@H](C)Oc2ccc(Cl)nc2C(N)=O)c2oc(-c3ccc4nc(CCO)sc4c3)c(C)c(=O)c2c1` [Example 132C, 6-Chloro-3-[(1R)-1-[2-[2-(2-hydroxyethyl)-1,3-benzothiazol-6-yl]-3,6-dimethyl-4-oxo-chromen-8-yl]ethoxy]pyridine-2-carboxamide], for which the IC50 in series [1] and in series [3] was less than 500 nM each time.
As for `Cc1cc([C@@H](C)Oc2ccc(Cl)nc2C(N)=O)c2oc(-c3ccc4nn([C@H]5C[C@@H](O)C5)cc4c3)c(C)c(=O)c2c1` [Example 133C, 6-Chloro-3-[(1R)-1-[2-[2-(3-hydroxycyclobutyl)indazol-5-yl]-3,6-dimethyl-4-oxo-chromen-8-yl]ethoxy]pyridine-2-carboxamide], the IC50 in series [1] and in series [3] was less than 500 nM each time.
Compound `Cc1cc([C@@H](C)Oc2ccc(Cl)nc2C(N)=O)c2oc(-c3ccc4nn(C)cc4n3)c(C)c(=O)c2c1` [Example 141A, 6-Chloro-3-[(1R)-1-[3,6-dimethyl-2-(2-methylpyrazolo[4,3-b]pyridin-5-yl)-4-oxo-chromen-8-yl]ethoxy]pyridine-2-carboxamide] showed an IC50 in series [1] of less than 500 nM. The same compound had a microsomal CLint at 1 μM in series [2] of less than 50 µL/min/mg.

For the origin of these results see patent US20240182460A1, “ALLOSTERIC CHROMENONE INHIBITORS OF PHOSPHOINOSITIDE 3-KINASE (PI3K) FOR THE TREATMENT OF DISEASE” (PETRA PHARMA CORPORATION, priority 2022, published 2024).
